The record followed here is patent US10335382B2, “Use of hydrogen sulfide synthesis inhibitors for cancer therapy” (THE BOARD OF REGENTS OF THE UNIVERSITY OF TEXAS SYSTEM, priority 2013, dated 2019).

Structures are written as SMILES. Counter-ions that a name gives are not always drawn. Like-named read-outs stand apart in the source and are kept apart here.

The target in this experiment is T1, CBS (Homo sapiens, UniProt P35520).
T1 sequence (P35520 1-551): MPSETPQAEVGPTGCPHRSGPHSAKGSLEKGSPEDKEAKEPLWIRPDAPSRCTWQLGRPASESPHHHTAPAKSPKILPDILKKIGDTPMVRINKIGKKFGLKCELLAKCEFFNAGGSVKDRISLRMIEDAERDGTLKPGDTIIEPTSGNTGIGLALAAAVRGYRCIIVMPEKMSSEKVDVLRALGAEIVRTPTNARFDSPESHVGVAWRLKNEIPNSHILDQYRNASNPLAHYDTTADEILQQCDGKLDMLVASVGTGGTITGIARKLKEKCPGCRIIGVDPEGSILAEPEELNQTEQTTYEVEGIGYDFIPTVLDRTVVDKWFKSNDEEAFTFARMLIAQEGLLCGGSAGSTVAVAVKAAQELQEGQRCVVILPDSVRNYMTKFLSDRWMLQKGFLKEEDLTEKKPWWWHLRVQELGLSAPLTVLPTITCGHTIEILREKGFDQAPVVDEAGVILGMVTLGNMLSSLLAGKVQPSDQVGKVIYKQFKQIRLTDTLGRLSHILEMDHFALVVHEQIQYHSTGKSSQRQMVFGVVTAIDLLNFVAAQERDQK
In words: CBS inhibitor screen: H2S production by recombinant CBS (methylene blue assay). Also noted: These studies used full-length human CBS enzyme; made in house; host or cells: E. coli BL21 (DE3) Codon Plus. It counts as biochemical. Particulars: for inhibition at 100 µM: read-out: Inhibition of CBS activity at 100 μM. An excerpt:
Studies have been performed characterizing, in detail, the specificity and selectivity of all known H2S biosynthesis inhibitors, using recombinant CBS and CSE enzymes. These studies used full-length human CBS enzyme, and a colorimetric ‘capture’ reaction of the H2S produced by these enzymes, an assay generally known as the ‘methylene blue assay’. This assay is used in a 96-well plate format, as well as in combination with a second screening method based on a fluorescent dye.
Human recombinant CBS is expressed as described (Asimakopoulou et al, (2013) Br J Pharmacol. 169(4):922-32). A library of pharmacologically active compounds (e.g., LOPAC library, Sigma; 1240 compounds) is tested on homocysteine-induced H2S production. In certain aspects the assay is in a 96-well format. In certain aspects H2S production is measured by the methylene blue assay (Asimakopoulou et al., (2013) Br J Pharmacol. 169(4):922-32).
Plasmids, bacterial strains and media. E. coli BL21 (DE3) Codon Plus is used as a host strain to express recombinant human CSE or CBS. CSE cDNA was cloned into pGEX-4T3 and CBS into pGEX-Kg to create N-terminal GSH-S-transferase (GST) fusion proteins. The expression vectors were transformed and plated on LB-agar plates, supplemented with ampicillin (100 μg/mL).
The expression and purification of CSE and CBS is performed as described previously with modifications (Frank et al., (2008) Arch Biochem Biophys 470:64-72; Huang et al., (2009) J Mol Biol 396: 708-18). Briefly, BL21(DE3) Codon Plus cells containing either the expression vector pGEX-4T3/GST-CSE or pGEX-Kg/GST-CBS are grown at 37° C. and 180 r.p.m. in LB broth medium containing 100 μg/mL ampicillin to an absorption of 0.6-0.8 at 600 nm. In addition, 0.3 mM d-ALA is added to the culture containing pGEX-Kg/GST-CBS. Then protein expression is induced by addition of 0.1 mM IPTG. Cells containing pGEX-4T-3/GST-CSE are incubated overnight at 18° C., whereas cells containing pGEXKg/GST-CBS are incubated overnight at 30° C. Culture is then centrifuged at 4° C. and 5000×g for 10 min and the cell pellet was resuspended in PBS (140 mM NaCl, 2.7 mM KCl, 10 mM Na2HPO4, 1.8 mM KH2PO4, pH 7.8) and stored at −20° C. overnight. After thawing, the suspension is sonicated in lysis buffer containing PBS and protease inhibitor cocktail for GST-CSE and PBS, 5 mM DTT, 1% Triton X-100, […] and protease inhibitor cocktail for GST-CBS. After centrifugation at 4° C. for 30 min, the soluble fraction containing either the GST-CSE or the GST-CBS recombinant protein is loaded onto a GSTrap FF 1 mL affinity column that has been equilibrated with binding buffer PBS. The column was consecutively washed with five column volumes of binding buffer. Proteins attached to the column, including GST-CSE or GST-CBS recombinant proteins, are eluted with five column volumes of elution buffer (50 mM Tris-HCl, 10 mM reduced GSH, pH 8.0) and then dialysed and concentrated in 10 mM sodium phosphate buffer pH 8.2 and DTT 1 mM. The purity of the recombinant enzymes was checked by SDS-PAGE on 12% polyacrylamide gels after staining of protein bands with Coomassie Blue R-250. Protein concentration was determined using the DC protein assay kit.
H2S determination is performed according to Stipanuk and Beck ((1982) Biochem J 206:267-77) with some modifications. In the case of the CSE enzyme, an assay consist of a 100 μL reaction mixture containing 5 μg of the purified CSE enzyme, 0.01 mM PLP, 1 mM L-cys, and 50 mM sodium phosphate buffer pH 8.2. For the CBS enzyme, the reaction mixture contains the same as for the CSE plus 1 mM homocysteine. The inhibitors can be added to the reaction before L-cys is added to the solution. Reactions are initiated by transferring the reaction solutions from ice to a 37° C. shaking water bath. After incubation at 37° C. the reaction is terminated by adding 1% ZnAc to trap H2S followed by 10% TCA to precipitate proteins. […]

Setting [1] is: 100 μM, homocysteine-induced H2S production, LOPAC library screen.

On to `CC(C)(Sc1ccc(CCN(CCCCC2CCCCC2)C(=O)NC2CCCCC2)cc1)C(=O)O` [GW7647], for which the inhibition – broadly, the share of the control response that was lost under treatment – at 100 µM under setting [1] was 73%. As for `CC(=O)c1c(O)c(C)c(O)c(Cc2c(O)c3c(c(C(=O)/C=C/c4ccccc4)c2O)OC(C)(C)C=C3)c1O` [Rottlerin], the inhibition at 100 µM was 96%. For the compound `C=C(c1ccc(C(=O)O)cc1)c1cc2c(cc1C)C(C)(C)CCC2(C)C` [Bexarotene], the inhibition at 100 µM under setting [1] was determined as 58%. Consider `CC(C)C(=O)c1c(C(C)C)nn2ccccc12` [Ibudilast], for which, under setting [1], the inhibition at 100 µM is 30%. Take `CN(C)[C@@H]1C(O)=C(C(N)=O)C(=O)[C@@]2(O)C(O)=C3C(=O)c4c(O)cccc4[C@@](C)(O)[C@H]3C[C@@H]12` [Tetracycline]: the inhibition at 100 µM under setting [1] was 43%. The same measure, in the same setting: for `CCC1(c2ccccc2)NC(=O)N(C)C1=O` (centres unmarked) [Mephenytoin] the value was 32%; for `C[C@H](CCC(=O)O)[C@H]1CC[C@H]2[C@@H]3CC[C@@H]4C[C@H](O)CC[C@]4(C)[C@H]3CC[C@]12C` [Lithocholic acid], 42%.

As to `COC1=C(OC)C(=O)c2ccccc2C1=O` [2,3-Dimethoxy-1,4-naphthoquinone], the inhibition at 100 µM under setting [1] came to 98%. Same read-out and setting: for `C[C@@H](N)[C@H]1CC[C@H](C(=O)Nc2ccncc2)CC1` [Compound Y-27632] the value was 94%; for `CN(C)[C@@H]1C(O)=C(C(N)=O)C(=O)[C@@]2(O)C(O)=C3C(=O)c4c(O)ccc(Cl)c4[C@@H](O)[C@H]3C[C@@H]12` [Demeclocycline hydrochloride], 96%.

`CN1CC[C@@]2(C)c3cc(O)ccc3N(C)[C@@H]12.O=C(O)/C=C/C(=O)O` [Eseroline fumarate]: the “Inhibition of CBS activity at 100 μM” value under setting [1] was 60%. As for `C=C1CC[C@H](O)C/C1=C/C=C1\CCC[C@]2(C)[C@@H]([C@H](C)CCCC(C)(C)O)CC[C@@H]12` [Calcifediol], under setting [1], the inhibition at 100 µM turned out to be 32%. Turning to `CN1CC[C@@]2(C)c3cc(OC(=O)Nc4ccccc4)ccc3N(C)[C@@H]12` [Phenserine], under setting [1], the inhibition at 100 µM amounted to 53%. As to `Cc1cc(C(C#N)c2ccc(Cl)cc2)c(Cl)cc1NC(=O)c1cc(I)cc(I)c1O` (centres unmarked) [Closantel], the inhibition at 100 µM under setting [1] worked out at 72%. Consider `CC[N+](C)(CC)CCC[n+]1c(-c2ccccc2)c2cc(N)ccc2c2ccc(N)cc21.[I-].[I-]` [Propidium iodide], for which the “Inhibition of CBS activity at 100 μM” value under setting [1] stood at 41%. In the case of `O=C(O)C1=CC(=C(c2ccc(O)c(C(=O)O)c2)c2ccc(O)c(C(=O)O)c2)C=CC1=O` [Aurintricarboxylic acid], the inhibition at 100 µM under setting [1] was determined as 75%. On the same count and under the same terms, the same measure for `CC1=C(/C=C/C(C)=C/C=C/C(C)=C/C(=O)O)C(C)(C)CCC1` [Retinoic acid]: 43%. On the same count and under the same terms, for `CC[C@H](c1ccc(O)cc1)[C@@H](CC)c1ccc(O)cc1` [Hexestrol] the value was 50%.

Take `C[n+]1c2cc(N)ccc2cc2ccc(N)cc21` [Acriflavinium]: the “Inhibition of CBS activity at 100 μM” value under setting [1] came to 64%. As for `CN(N=O)c1ccc(O)c(O)c1` [Me-3,4-dephostatin], under setting [1], the “Inhibition of CBS activity at 100 μM” value amounted to 85%. For `C[C@]12CC[C@@H]3c4ccc(O)cc4CC[C@H]3[C@@H]1CC[C@@H]2O` [Estradiol], under setting [1], the inhibition at 100 µM stood at 53%.

For `Cl.NC[C@@H]1O[C@H](C23CC4CC(CC(C4)C2)C3)Cc2c1ccc(O)c2O` [A-77636 hydrochloride], the “Inhibition of CBS activity at 100 μM” value under setting [1] came out at 30%.

Consider `C[C@H]1c2cccc(O)c2C(=O)C2=C(O)[C@]3(O)C(=O)C(C(N)=O)=C(O)[C@@H](N(C)C)[C@@H]3[C@@H](O)[C@@H]21` [Doxycycline], for which the inhibition at 100 µM under setting [1] stood at 57%. Regarding `O=C1Nc2ccc(I)cc2/C1=C/c1cc(Br)c(O)c(Br)c1` [GW5074], under setting [1], the “Inhibition of CBS activity at 100 μM” value was 87%. As to `C[C@@](Cc1ccc(O)c(O)c1)(NN)C(=O)O` [Carbidopa], under setting [1], the inhibition at 100 µM was 45%.

For `Cc1ccc(C(=O)Nc2ccc(S(=O)(=O)O)c3cc(S(=O)(=O)O)cc(S(=O)(=O)O)c23)cc1NC(=O)c1cccc(NC(=O)Nc2cccc(C(=O)Nc3cc(C(=O)Nc4ccc(S(=O)(=O)O)c5cc(S(=O)(=O)O)cc(S(=O)(=O)O)c45)ccc3C)c2)c1` [Suramin sodium], the inhibition at 100 µM under setting [1] was determined as 57%. As for `Cc1c(C)c2c(c(C)c1O)CCC(C)(COc1ccc(CC3SC(=O)NC3=O)cc1)O2` (centres unmarked) [Troglitazone], the inhibition at 100 µM under setting [1] stood at 30%.

Consider `O=C(c1ccc(OCCN2CCCCC2)cc1)c1c(-c2ccc(O)cc2)sc2cc(O)ccc12` [Raloxifene], for which the inhibition at 100 µM under setting [1] was 60%. For `CC(C)=CC[C@@H](O)C1=CC(=O)c2c(O)ccc(O)c2C1=O` [Shikonin], the inhibition at 100 µM under setting [1] is 51%.

Turning to `COc1cccc2c1C(=O)c1c(O)c3c(c(O)c1C2=O)C[C@@](O)(C(=O)CO)C[C@@H]3O[C@H]1C[C@H](N)[C@H](O)[C@H](C)O1` [Doxorubicin], the inhibition at 100 µM under setting [1] was found to be 52%. For `NC(Cc1cc(O)c(O)cc1O)C(=O)O` (racemic) [6-Hydroxy-DL-DOPA], the “Inhibition of CBS activity at 100 μM” value under setting [1] was found to be 77%. As to `COc1cc(C(=O)NS(=O)(=O)c2ccccc2C)ccc1Cc1cn(C)c2ccc(NC(=O)OC3CCCC3)cc12` [Zafirlukast], the inhibition at 100 µM under setting [1] came to 81%.
